Laboratory results taken from PMC10872723 (Journal of medicinal chemistry, 2023).
Like-named read-outs stand apart in the source and are kept apart here.

Assays:
WDR5 [1] = biological target: T1, WDR5 (Homo sapiens, UniProt P61964); assay: Western blotting of WDR5 protein levels in MV4; conditions: MV4;11 cells
IKZF1 = IKZF1 (Homo sapiens, UniProt Q13422); assay: Western blotting of IKZF1 protein levels in MV4; conditions: MV4;11 cells
LIMD1 = LIMD1 (Homo sapiens, UniProt Q9UGP4); assay: Western blotting of LIMD1 protein levels in MV4; conditions: MV4;11 cells, 0.1 and 0.5 μM, 18 h (Figure 5A)
Chain of LIMD1 (Q9UGP4 whole entry): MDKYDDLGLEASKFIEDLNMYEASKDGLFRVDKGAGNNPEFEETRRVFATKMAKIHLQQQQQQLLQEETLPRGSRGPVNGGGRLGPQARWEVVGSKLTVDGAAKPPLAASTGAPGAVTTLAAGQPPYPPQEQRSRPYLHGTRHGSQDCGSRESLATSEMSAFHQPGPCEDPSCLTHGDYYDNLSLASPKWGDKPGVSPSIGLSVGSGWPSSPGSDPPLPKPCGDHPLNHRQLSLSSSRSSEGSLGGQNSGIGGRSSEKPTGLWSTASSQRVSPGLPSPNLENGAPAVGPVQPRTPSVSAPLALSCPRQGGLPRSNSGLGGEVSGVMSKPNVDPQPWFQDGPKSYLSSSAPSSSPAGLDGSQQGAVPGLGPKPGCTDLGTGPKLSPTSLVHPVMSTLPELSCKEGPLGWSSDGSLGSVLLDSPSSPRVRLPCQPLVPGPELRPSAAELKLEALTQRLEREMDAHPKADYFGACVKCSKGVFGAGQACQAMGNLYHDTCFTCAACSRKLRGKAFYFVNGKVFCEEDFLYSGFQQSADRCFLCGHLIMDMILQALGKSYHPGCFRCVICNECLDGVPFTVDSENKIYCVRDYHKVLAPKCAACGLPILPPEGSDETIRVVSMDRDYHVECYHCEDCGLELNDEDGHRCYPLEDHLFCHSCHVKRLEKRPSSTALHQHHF

WDR5 [2] = biological target: T1, WDR5; conditions: MIA PaCa-2 cells, indicated concentrations, 18 h (Figure 5C)
VCB E3 ligase complex = VCB E3 ligase complex (Homo sapiens, UniProt P40337); assay: Isothermal titration calorimetry; assay type: binding; conditions: mean ± SD, three independent experiments
Chain of VCB E3 ligase complex (Q15369 whole entry): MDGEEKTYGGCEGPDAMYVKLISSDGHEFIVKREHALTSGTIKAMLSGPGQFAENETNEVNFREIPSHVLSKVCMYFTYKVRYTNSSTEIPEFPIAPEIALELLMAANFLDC
Chain of VCB E3 ligase complex (Q15370 1-104, further chain): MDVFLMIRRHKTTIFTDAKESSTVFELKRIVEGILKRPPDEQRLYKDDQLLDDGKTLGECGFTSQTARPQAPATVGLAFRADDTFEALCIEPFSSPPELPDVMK
Chain of VCB E3 ligase complex (P40337 54-213): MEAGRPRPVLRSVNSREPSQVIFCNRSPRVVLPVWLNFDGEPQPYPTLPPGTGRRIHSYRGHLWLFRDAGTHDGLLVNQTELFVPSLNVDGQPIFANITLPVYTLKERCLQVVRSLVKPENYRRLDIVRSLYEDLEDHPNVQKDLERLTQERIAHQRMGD

WDR5 [3] = biological target: T1, WDR5; assay: Isothermal titration calorimetry; assay type: binding
WDR5 [4] = biological target: T1, WDR5; assay: Western blotting of WDR5 degradation in PDAC cell lines; assay type: cell-based; conditions: MIA PaCa-2, BxPC-3, HPAF-II, Panc10.05 and PANC-1 cells, indicated concentrations, 18 h
[5] = system: PDAC cell lines including MIA PaCa-2, BxPC-3, HPAF-II, Panc10.05, and PANC-1; assay: Antiproliferative activity in PDAC cell lines; assay type: cell-based, human; conditions: PDAC cells, 6 day treatment
[6] = 0.1 and 0.5 μM, 18 h (Figure 5A)
[7] = indicated concentrations, 18 h (Figure 5B)

Chain of IKZF1 (Q13422 whole entry): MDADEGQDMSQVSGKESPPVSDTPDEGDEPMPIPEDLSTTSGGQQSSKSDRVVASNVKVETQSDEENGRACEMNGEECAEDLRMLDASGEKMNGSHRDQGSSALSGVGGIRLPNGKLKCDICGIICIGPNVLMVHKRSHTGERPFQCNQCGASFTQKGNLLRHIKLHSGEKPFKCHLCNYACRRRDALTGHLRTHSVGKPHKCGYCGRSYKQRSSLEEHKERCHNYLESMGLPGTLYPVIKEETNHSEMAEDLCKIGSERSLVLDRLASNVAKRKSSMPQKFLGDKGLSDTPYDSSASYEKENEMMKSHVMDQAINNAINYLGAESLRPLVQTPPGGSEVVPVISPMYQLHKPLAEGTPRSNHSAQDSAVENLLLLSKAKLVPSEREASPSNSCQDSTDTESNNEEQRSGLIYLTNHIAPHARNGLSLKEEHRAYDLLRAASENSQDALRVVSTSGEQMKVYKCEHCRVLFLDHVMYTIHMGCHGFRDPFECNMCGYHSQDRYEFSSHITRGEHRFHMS

SMILES | WDR5 protein levels (WB) (WDR5 [1]; [6]) | IKZF1 protein levels (WB) (IKZF1; [6]) | LIMD1 protein levels (WB) (LIMD1) | further results
CN1CCN(c2ccc(-c3cccc(CN4CCN(CCNC(=O)CCCCNC(=O)COc5cccc6c5C(=O)N(C5CCC(=O)N(C)C5=O)C6=O)CC4)c3)cc2NC(=O)c2c[nH]c(=O)cc2C(F)(F)F)CC1 (stereo not shown) [Compound 24, N-(3′-((4-(2-(5-(2-((2-(1-Methyl-2,6-dioxopiperidin-3-yl)-1,3-dioxoisoindolin-4-yl)oxy)acetamido)pentanamido)ethyl)piperazin-1-yl)methyl)-4-(4-methylpiperazin-1-yl)-[1,1′-biphenyl]-3-yl)-6-oxo-4-(trifluoromethyl)-1,6-dihydropyridine-3-carboxamide] | did not have an effect on the protein levels of WDR5, IKZF1, and LIMD1 | did not have an effect on the protein levels of WDR5, IKZF1, and LIMD1 | did not have an effect on the protein levels of WDR5, IKZF1, and LIMD1 | –
CN1CCN(c2ccc(-c3cccc(CN4CCN(CCNC(=O)CCCCNC(=O)COc5cccc6c5C(=O)N(C5CCC(=O)NC5=O)C6=O)CC4)c3)cc2NC(=O)c2c[nH]c(=O)cc2C(F)(F)F)CC1 (stereo not shown) [Compound 23, N-(3′-((4-(2-(5-(2-((2-(2,6-Dioxopiperidin-3-yl)-1,3-dioxoisoindolin-4-yl)oxy)acetamido)pentanamido)ethyl)piperazin-1-yl)methyl)-4-(4-methylpiperazin-1-yl)-[1,1′-biphenyl]-3-yl)-6-oxo-4-(trifluoromethyl)-1,6-dihydropyridine-3-carboxamide] | to a less extent effectively downregulated WRD5 protein levels | completely ineffective in degrading neo-substrate IKZF1 | completely ineffective in degrading neo-substrate IKZF1, and protein LIMD1 | –
C[C@@H]1CN(c2ccc(-c3cc(C(=O)NCCCCCCCNC(=O)COc4cccc5c4C(=O)N(C4CCC(=O)NC4=O)C5=O)ccc3F)cc2NC(=O)c2c[nH]c(=O)cc2C(F)(F)F)C[C@H](C)N1C (stereo partly drawn) [Compound 25, N-(5′-((7-(2-((2-(2,6-Dioxopiperidin-3-yl)-1,3-dioxoisoindolin-4-yl)oxy)acetamido)heptyl)carbamoyl)-2′-fluoro-4-((3S,5R)-3,4,5-trimethylpiperazin-1-yl)-[1,1′-biphenyl]-3-yl)-6-oxo-4-(trifluoromethyl)-1,6-dihydropyridine-3-carboxamide] | – | – | – | WDR5 protein levels (WB) (WDR5 [2]): effectively reduced the cellular WDR5 protein levels; IKZF1 protein levels (WB) (IKZF1; [7]): had no effect on IKZF1 protein levels
C[C@@H]1CN(c2ccc(-c3cc(C(=O)NCCCCCCCNC(=O)COc4cccc5c4C(=O)N(C4CCC(=O)N(C)C4=O)C5=O)ccc3F)cc2NC(=O)c2c[nH]c(=O)cc2C(F)(F)F)C[C@H](C)N1C (stereo partly drawn) [Compound 26, N-(2′-Fluoro-5′-((7-(2-((2-(1-methyl-2,6-dioxopiperidin-3-yl)-1,3-dioxoisoindolin-4-yl)oxy)acetamido)heptyl)carbamoyl)-4-((3S,5R)-3,4,5-trimethylpiperazin-1-yl)-[1,1′-biphenyl]-3-yl)-6-oxo-4-(trifluoromethyl)-1,6-dihydropyridine-3-carboxamide] | – | – | – | WDR5 protein levels (WB) (WDR5 [1]; indicated concentrations, 18 h (Figures 5B and S1)): did not affect the protein levels of WDR5 and IKZF1; IKZF1 protein levels (WB) (IKZF1; [7]): did not affect the protein levels of WDR5 and IKZF1
CN1CCN(c2ccc(-c3cccc(CN4CCN(CCNC(=O)CCCCCCCNC(=O)COc5cccc6c5C(=O)N(C5CCC(=O)N(C)C5=O)C6=O)CC4)c3)cc2NC(=O)c2c[nH]c(=O)cc2C(F)(F)F)CC1 (stereo not shown) [Compound 22, N-(3′-((4-(2-(8-(2-((2-(1-Methyl-2,6-dioxopiperidin-3-yl)-1,3-dioxoisoindolin-4-yl)oxy)acetamido)octanamido)ethyl)piperazin-1-yl)methyl)-4-(4-methylpiperazin-1-yl)-[1,1′-biphenyl]-3-yl)-6-oxo-4-(trifluoromethyl)-1,6-dihydropyridine-3-carboxamide] | did not have an effect on the protein levels of WDR5, IKZF1, and LIMD1 | did not have an effect on the protein levels of WDR5, IKZF1, and LIMD1 | did not have an effect on the protein levels of WDR5, IKZF1, and LIMD1 | –
CN1CCN(c2ccc(-c3cccc(CN4CCN(CCNC(=O)CCCCCCCNC(=O)COc5cccc6c5C(=O)N(C5CCC(=O)NC5=O)C6=O)CC4)c3)cc2NC(=O)c2c[nH]c(=O)cc2C(F)(F)F)CC1 (stereo not shown) [Compound 21, N-(3′-((4-(2-(8-(2-((2-(2,6-Dioxopiperidin-3-yl)-1,3-dioxoisoindolin-4-yl)oxy)acetamido)octanamido)ethyl)piperazin-1-yl)methyl)4-(4-methylpiperazin-1-yl)-[1,1′-biphenyl]-3-yl)-6-oxo-4-(trifluoromethyl)-1,6-dihydropyridine-3-carboxamide] | effectively downregulated WRD5 protein levels | completely ineffective in degrading neo-substrate IKZF1 | completely ineffective in degrading neo-substrate IKZF1, and protein LIMD1 | Effectiveness in downregulating WDR5 protein levels relative to other degraders (WDR5 [1]; [6]): slightly more effective than MS40 and 23; WDR5 protein levels (WB) (WDR5 [2]): effectively reduced the cellular WDR5 protein levels
Cc1ncsc1-c1ccc(CNC(=O)[C@H]2C[C@H](O)CN2C(=O)[C@@H](NC(=O)CNC(=O)c2ccc(F)c(-c3ccc(N4C[C@@H](C)N(C)[C@@H](C)C4)c(NC(=O)c4c[nH]c(=O)cc4C(F)(F)F)c3)c2)C(C)(C)C)cc1 [Compound 27, N-(2′-Fluoro-5′-((2-(((S)-1-((2R,4S)-4-hydroxy-2-((4-(4-methylthiazol-5-yl)benzyl)carbamoyl)pyrrolidin-1-yl)-3,3-dimethyl-1-oxobutan-2-yl)amino)-2-oxoethyl)carbamoyl)-4-((3S,5R)-3,4,5-trimethylpiperazin-1-yl)-[1,1′-biphenyl]-3-yl)-6-oxo-4-(trifluoromethyl)-1,6-dihydropyridine-3-carboxamide] | – | – | – | KD to VCB (ITC) (VCB E3 ligase complex): did not display any noticeable binding to VCB; Kd (WDR5 [3]): 106 ± 43 nM; WDR5 degradation (WB) (WDR5 [4]): unable to degrade WDR5 in all tested pancreatic cancer cells; Antiproliferative activity [5]: lack of antiproliferative activity
